The values below come from ChEMBL document CHEMBL1909046, “DrugMatrix in vitro pharmacology data”.

One data set deals with Kappa-type opioid receptor (Homo sapiens, UniProt P41145). The data set can be described thus: DRUGMATRIX: Opiate kappa (OP2, KOP) radioligand binding (ligand: [3H] Diprenorphine). The following applies: Not Active = under 50% inhibition at 10 µM. It is filed as cell membranes, HEK293, Membrane.
Sequence of Kappa-type opioid receptor (P41145 whole entry): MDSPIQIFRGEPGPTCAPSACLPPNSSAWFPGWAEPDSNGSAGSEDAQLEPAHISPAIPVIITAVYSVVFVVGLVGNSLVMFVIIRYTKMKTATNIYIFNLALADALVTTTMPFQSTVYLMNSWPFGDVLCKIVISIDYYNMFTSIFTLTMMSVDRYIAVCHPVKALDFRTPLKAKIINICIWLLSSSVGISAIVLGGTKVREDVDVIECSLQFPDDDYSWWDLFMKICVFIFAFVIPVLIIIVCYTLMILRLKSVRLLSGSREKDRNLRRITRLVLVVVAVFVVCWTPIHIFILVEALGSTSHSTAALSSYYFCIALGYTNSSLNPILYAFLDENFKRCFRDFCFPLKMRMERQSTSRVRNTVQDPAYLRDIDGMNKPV
`OCCN1CCN(CCCN2c3ccccc3Sc3ccc(C(F)(F)F)cc32)CC1` [FLUPHENAZINE] had a Ki of 9.89 µM.

The same data set, now with this note: Not Active = under 50% inhibition at 10 µM; read-out: IC50.
`OCCN1CCN(CCCN2c3ccccc3Sc3ccc(C(F)(F)F)cc32)CC1` [FLUPHENAZINE]: the IC50 was 24.7 µM.

Still in this data set, the particulars now being: hek293; Not Active = under 50% inhibition at 10 µM.
Regarding `COc1cc(N)nc2[nH]c(-c3ccc(F)cc3)c(-c3ccncc3)c12`, the concentration for half-maximal inhibition (IC50) entry is on record as “Not Active”.
The same measure, in the same setting: then `CNS(=O)(=O)Cc1ccc2[nH]cc(CCN(C)C)c2c1`, with “Not Active”; and `CCCc1nn(C)c2c(=O)[nH]c(-c3cc(S(=O)(=O)N4CCN(C)CC4)ccc3OCC)nc12`, with “Not Active”; and `COc1ccc(/C=C/C(=O)Nc2ccccc2C(=O)O)cc1OC`, with “Not Active”.
Still for that read-out and setting: then `CCOC(N)=O`, with “Not Active”; and `CC(=O)Nc1nnc(S(N)(=O)=O)s1` [ACETAZOLAMIDE], with “Not Active”; and `CC(C)OC(=O)C(C)(C)Oc1ccc(C(=O)c2ccc(Cl)cc2)cc1` [FENOFIBRATE], with “Not Active”.
As for `CN1C2CCCC1CC(NC(=O)c1nn(C)c3ccccc13)C2` (centres undefined) [GRANISETRON], the half-inhibitory concentration (IC50) result was “Not Active”.

For another data set, the target named is Protein kinase C alpha type (Homo sapiens, UniProt P17252). It is filed as cell-based. The settings on record: sf9.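 Note: inhibition of PKCalpha kinase activity measured in an enzyme assay with histone as the phosphorylation substrate; in other assays of this panel Not Active means under 50% inhibition at 10 µM.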
On to `COc1cc(N)nc2[nH]c(-c3ccc(F)cc3)c(-c3ccncc3)c12`, for which the half-maximal inhibitory concentration (IC50) entry was “Not Active”.
As for `CNS(=O)(=O)Cc1ccc2[nH]cc(CCN(C)C)c2c1`, the 50% inhibitory concentration (IC50) result is given as “Not Active”.
The same measure, in the same setting: with `CCCc1nn(C)c2c(=O)[nH]c(-c3cc(S(=O)(=O)N4CCN(C)CC4)ccc3OCC)nc12` the entry was “Not Active”; with `COc1ccc(/C=C/C(=O)Nc2ccccc2C(=O)O)cc1OC`, “Not Active”.
As to `CCOC(N)=O`, the half-inhibitory concentration (IC50) result is “Not Active”.
Same read-out and setting: then `CC(=O)Nc1nnc(S(N)(=O)=O)s1` [ACETAZOLAMIDE], with “Not Active”.
`CC(C)OC(=O)C(C)(C)Oc1ccc(C(=O)c2ccc(Cl)cc2)cc1` [FENOFIBRATE]: the IC50 entry is listed as “Not Active”.
As for `OCCN1CCN(CCCN2c3ccccc3Sc3ccc(C(F)(F)F)cc32)CC1` [FLUPHENAZINE], the concentration for half-maximal inhibition (IC50) entry is on record as “Not Active”.
On the same count and under the same terms, with `CN1C2CCCC1CC(NC(=O)c1nn(C)c3ccccc13)C2` (centres undefined) [GRANISETRON] the entry was “Not Active”.

System in another data set: not listed separately
The data set can be described thus: DRUGMATRIX: Platelet-Derived Growth Factor (PDGF) radioligand binding (ligand: [125I] PDGF). It is filed as cell-based. The settings on record: nih3t3; Not Active = under 50% inhibition at 10 µM.
For the compound `COc1cc(N)nc2[nH]c(-c3ccc(F)cc3)c(-c3ccncc3)c12`, the concentration for half-maximal inhibition (IC50) result is given as “Not Active” and the Ki result is reported as “Not Active”.
With `CNS(=O)(=O)Cc1ccc2[nH]cc(CCN(C)C)c2c1`, the concentration for half-maximal inhibition (IC50) entry is on record as “Not Active” and the inhibition constant Ki result is on record as “Not Active”.
Take `CCCc1nn(C)c2c(=O)[nH]c(-c3cc(S(=O)(=O)N4CCN(C)CC4)ccc3OCC)nc12`: the 50% inhibitory concentration (IC50) entry is on record as “Not Active” and the Ki entry was “Not Active”.
Consider `COc1ccc(/C=C/C(=O)Nc2ccccc2C(=O)O)cc1OC`, for which the half-maximal inhibitory concentration (IC50) entry was “Not Active” and the inhibition constant Ki result was “Not Active”.
`CCOC(N)=O`: the IC50 entry was “Not Active” and the inhibition constant (Ki) result is reported as “Not Active”.

A further data set deals with Glycine receptor (Rattus norvegicus, UniProt P22771+P24524+P07727+P20781). It is filed as cell membranes, Wistar, Spinal cord, Membrane.
Conditions: not given
In the case of `COc1cc(N)nc2[nH]c(-c3ccc(F)cc3)c(-c3ccncc3)c12`, the IC50 entry is listed as “Not Active”.
On the same count and under the same terms, then `CNS(=O)(=O)Cc1ccc2[nH]cc(CCN(C)C)c2c1`, with “Not Active”; and `CCCc1nn(C)c2c(=O)[nH]c(-c3cc(S(=O)(=O)N4CCN(C)CC4)ccc3OCC)nc12`, with “Not Active”.
Same read-out and setting: then `COc1ccc(/C=C/C(=O)Nc2ccccc2C(=O)O)cc1OC`, with “Not Active”.
Same read-out and setting: then `CCOC(N)=O`, with “Not Active”; and `CC(=O)Nc1nnc(S(N)(=O)=O)s1` [ACETAZOLAMIDE], with “Not Active”; and `CC(C)OC(=O)C(C)(C)Oc1ccc(C(=O)c2ccc(Cl)cc2)cc1` [FENOFIBRATE], with “Not Active”.
Turning to `OCCN1CCN(CCCN2c3ccccc3Sc3ccc(C(F)(F)F)cc32)CC1` [FLUPHENAZINE], the IC50 result is given as “Not Active”.
As to `CN1C2CCCC1CC(NC(=O)c1nn(C)c3ccccc13)C2` (centres undefined) [GRANISETRON], the IC50 entry is listed as “Not Active”.

The target in the next data set is Voltage-gated inwardly rectifying potassium channel KCNH2 (Homo sapiens, UniProt Q12809). The following applies: hek293. Note: in other assays of this panel Not Active means under 50% inhibition at 10 µM.
Sequence of Voltage-gated inwardly rectifying potassium channel KCNH2 (Q12809 whole entry): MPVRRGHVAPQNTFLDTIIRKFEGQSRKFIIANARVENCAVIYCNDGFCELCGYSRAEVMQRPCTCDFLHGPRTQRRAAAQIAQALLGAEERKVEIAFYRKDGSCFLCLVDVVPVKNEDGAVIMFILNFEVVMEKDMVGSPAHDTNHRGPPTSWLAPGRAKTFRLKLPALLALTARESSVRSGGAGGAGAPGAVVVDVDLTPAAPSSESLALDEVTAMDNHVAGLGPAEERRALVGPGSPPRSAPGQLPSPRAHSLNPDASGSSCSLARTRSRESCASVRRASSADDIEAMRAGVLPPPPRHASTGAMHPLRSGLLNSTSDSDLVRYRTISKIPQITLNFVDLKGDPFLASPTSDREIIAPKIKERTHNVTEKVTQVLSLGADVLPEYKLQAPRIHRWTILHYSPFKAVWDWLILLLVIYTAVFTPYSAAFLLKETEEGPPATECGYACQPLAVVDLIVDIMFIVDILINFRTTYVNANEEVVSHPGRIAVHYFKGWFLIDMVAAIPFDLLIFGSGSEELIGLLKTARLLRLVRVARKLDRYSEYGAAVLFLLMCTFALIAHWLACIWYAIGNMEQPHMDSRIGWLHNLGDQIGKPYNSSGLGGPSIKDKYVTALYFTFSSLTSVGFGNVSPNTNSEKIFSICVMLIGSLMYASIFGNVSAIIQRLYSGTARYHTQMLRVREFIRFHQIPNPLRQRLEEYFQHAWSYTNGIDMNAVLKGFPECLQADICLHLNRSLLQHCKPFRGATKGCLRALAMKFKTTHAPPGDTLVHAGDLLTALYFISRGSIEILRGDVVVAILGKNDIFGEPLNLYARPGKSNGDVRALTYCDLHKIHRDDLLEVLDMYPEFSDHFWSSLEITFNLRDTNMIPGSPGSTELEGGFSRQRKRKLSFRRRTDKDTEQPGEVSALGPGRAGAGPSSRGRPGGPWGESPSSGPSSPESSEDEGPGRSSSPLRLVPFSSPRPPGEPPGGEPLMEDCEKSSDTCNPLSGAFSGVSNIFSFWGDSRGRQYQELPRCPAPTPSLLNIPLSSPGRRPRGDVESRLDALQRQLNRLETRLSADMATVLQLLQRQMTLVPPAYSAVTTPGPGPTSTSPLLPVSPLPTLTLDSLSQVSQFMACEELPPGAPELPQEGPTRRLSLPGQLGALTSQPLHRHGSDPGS
For `COc1cc(N)nc2[nH]c(-c3ccc(F)cc3)c(-c3ccncc3)c12`, the half-inhibitory concentration (IC50) entry is recorded as “Not Active” and the Ki result was “Not Active”.
With `CNS(=O)(=O)Cc1ccc2[nH]cc(CCN(C)C)c2c1`, the concentration for half-maximal inhibition (IC50) result is given as “Not Active” and the Ki entry is recorded as “Not Active”.
For `COc1ccc(/C=C/C(=O)Nc2ccccc2C(=O)O)cc1OC`, the half-inhibitory concentration (IC50) entry was “Not Active” and the inhibitory constant (Ki) entry was “Not Active”.
On to `CCOC(N)=O`, for which the IC50 result was “Not Active” and the Ki result was “Not Active”.
`CC(=O)Nc1nnc(S(N)(=O)=O)s1` [ACETAZOLAMIDE]: the 50% inhibitory concentration (IC50) result is listed as “Not Active” and the Ki result is “Not Active”.
For the compound `CC(C)OC(=O)C(C)(C)Oc1ccc(C(=O)c2ccc(Cl)cc2)cc1` [FENOFIBRATE], the IC50 entry is recorded as “Not Active” and the Ki entry is on record as “Not Active”.
As for `CN1C2CCCC1CC(NC(=O)c1nn(C)c3ccccc13)C2` (centres undefined) [GRANISETRON], the half-inhibitory concentration (IC50) result is “Not Active” and the Ki result was “Not Active”.

A further data set deals with T1, 5-hydroxytryptamine receptor 2C (Homo sapiens, UniProt P28335).
T1 sequence (P28335 whole entry): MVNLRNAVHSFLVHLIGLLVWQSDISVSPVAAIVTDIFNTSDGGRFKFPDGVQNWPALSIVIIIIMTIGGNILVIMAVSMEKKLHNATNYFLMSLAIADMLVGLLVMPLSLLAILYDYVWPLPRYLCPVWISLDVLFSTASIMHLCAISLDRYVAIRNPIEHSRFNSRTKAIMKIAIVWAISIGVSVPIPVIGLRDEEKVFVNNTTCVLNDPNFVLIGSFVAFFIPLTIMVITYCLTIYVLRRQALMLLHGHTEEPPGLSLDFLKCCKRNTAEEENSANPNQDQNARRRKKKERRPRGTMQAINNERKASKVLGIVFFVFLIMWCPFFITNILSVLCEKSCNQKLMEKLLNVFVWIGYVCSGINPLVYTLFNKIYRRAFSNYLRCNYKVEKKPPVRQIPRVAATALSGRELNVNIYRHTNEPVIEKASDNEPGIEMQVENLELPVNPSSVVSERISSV
The experiment in a line: DRUGMATRIX: Serotonin (5-Hydroxytryptamine) 5-HT2C radioligand binding (ligand: [3H] Mesulergine). In kind it is cell membranes, CHO-K1, Membrane. The settings on record: Not Active = under 50% inhibition at 10 µM; read-out: IC50.
For the compound `COc1cc(N)nc2[nH]c(-c3ccc(F)cc3)c(-c3ccncc3)c12`, the IC50 was found to be 1.24 µM.

Staying with this data set, now noted: Not Active = under 50% inhibition at 10 µM; read-out: Ki.
As for `COc1cc(N)nc2[nH]c(-c3ccc(F)cc3)c(-c3ccncc3)c12`, the Ki amounted to 0.648 µM.

Staying with this data set, now noted: cho-k1; Not Active = under 50% inhibition at 10 µM.
`CNS(=O)(=O)Cc1ccc2[nH]cc(CCN(C)C)c2c1`: the concentration for half-maximal inhibition (IC50) entry is on record as “Not Active”.
As for `CCCc1nn(C)c2c(=O)[nH]c(-c3cc(S(=O)(=O)N4CCN(C)CC4)ccc3OCC)nc12`, the IC50 result was “Not Active”.
Still for that read-out and setting: then `COc1ccc(/C=C/C(=O)Nc2ccccc2C(=O)O)cc1OC`, with “Not Active”; and `CCOC(N)=O`, with “Not Active”; and `CC(=O)Nc1nnc(S(N)(=O)=O)s1` [ACETAZOLAMIDE], with “Not Active”.
On the same count and under the same terms, then `CN1C2CCCC1CC(NC(=O)c1nn(C)c3ccccc13)C2` (centres undefined) [GRANISETRON], with “Not Active”.

In a further data set the target is C-C chemokine receptor type 2 (Homo sapiens, UniProt P41597). In kind it is cell membranes, CHO-K1, Membrane. The settings on record: cho-k1. Note: in other assays of this panel Not Active means under 50% inhibition at 10 µM.
Sequence of C-C chemokine receptor type 2 (P41597 whole entry): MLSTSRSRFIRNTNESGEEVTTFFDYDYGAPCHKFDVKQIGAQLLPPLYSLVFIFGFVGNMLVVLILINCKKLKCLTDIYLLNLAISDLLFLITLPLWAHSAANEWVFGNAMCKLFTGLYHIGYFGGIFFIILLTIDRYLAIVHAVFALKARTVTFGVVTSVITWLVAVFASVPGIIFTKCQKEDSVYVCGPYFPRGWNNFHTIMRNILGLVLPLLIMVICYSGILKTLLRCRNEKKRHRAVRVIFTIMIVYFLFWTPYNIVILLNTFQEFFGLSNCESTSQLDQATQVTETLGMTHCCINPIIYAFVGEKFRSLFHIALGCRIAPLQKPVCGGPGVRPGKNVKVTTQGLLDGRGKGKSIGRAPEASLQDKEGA
On to `COc1cc(N)nc2[nH]c(-c3ccc(F)cc3)c(-c3ccncc3)c12`, for which the IC50 result is given as “Not Active”.
Still for that read-out and setting: with `CNS(=O)(=O)Cc1ccc2[nH]cc(CCN(C)C)c2c1` the entry was “Not Active”; with `CCCc1nn(C)c2c(=O)[nH]c(-c3cc(S(=O)(=O)N4CCN(C)CC4)ccc3OCC)nc12`, “Not Active”.
As to `COc1ccc(/C=C/C(=O)Nc2ccccc2C(=O)O)cc1OC`, the IC50 entry is “Not Active”.
Still for that read-out and setting: then `CCOC(N)=O`, with “Not Active”.
As to `CC(=O)Nc1nnc(S(N)(=O)=O)s1` [ACETAZOLAMIDE], the IC50 entry is recorded as “Not Active”.
Same read-out and setting: then `CC(C)OC(=O)C(C)(C)Oc1ccc(C(=O)c2ccc(Cl)cc2)cc1` [FENOFIBRATE], with “Not Active”.
On the same count and under the same terms, then `OCCN1CCN(CCCN2c3ccccc3Sc3ccc(C(F)(F)F)cc32)CC1` [FLUPHENAZINE], with “Not Active”; and `CN1C2CCCC1CC(NC(=O)c1nn(C)c3ccccc13)C2` (centres undefined) [GRANISETRON], with “Not Active”.

System in a further data set: not listed separately
The data set can be described thus: DRUGMATRIX: Atrial Natriuretic Factor (ANF) radioligand binding (ligand: [125I] ANF (rat)). In kind it is cell membranes, Cavia porcellus, Dunkin-Hartley, Adrenal gland, Membrane. The settings on record: Not Active = under 50% inhibition at 10 µM.
In the case of `COc1cc(N)nc2[nH]c(-c3ccc(F)cc3)c(-c3ccncc3)c12`, the half-inhibitory concentration (IC50) entry is reported as “Not Active” and the Ki entry is recorded as “Not Active”.
As to `CNS(=O)(=O)Cc1ccc2[nH]cc(CCN(C)C)c2c1`, the IC50 entry was “Not Active” and the Ki result is reported as “Not Active”.
On to `CCCc1nn(C)c2c(=O)[nH]c(-c3cc(S(=O)(=O)N4CCN(C)CC4)ccc3OCC)nc12`, for which the 50% inhibitory concentration (IC50) entry was “Not Active” and the inhibition constant Ki result is reported as “Not Active”.
With `COc1ccc(/C=C/C(=O)Nc2ccccc2C(=O)O)cc1OC`, the IC50 entry is “Not Active” and the inhibition constant (Ki) entry was “Not Active”.
Turning to `CCOC(N)=O`, the IC50 entry is “Not Active” and the inhibition constant (Ki) entry is listed as “Not Active”.

Usually Ki stands for the equilibrium dissociation constant of an inhibitor or competing ligand from its target. By IC50 is commonly meant the concentration that gives 50% inhibition.
